From the NIST ThermoML archive (doi:10.1021/je800920d)
± gives the expanded uncertainty stated by the source.

Experiments:
[1] = Crystal; DTA
[2] = Molar enthalpy of transition or fusion; settings: Crystal; DSC

Structure (SMILES): COc1ccc2cc([C@H](C)C(=O)O)ccc2c1 [(S)-(+)-naproxen]
- Normal melting temperature [1]: 154.6 ± 0.5 °C
- Molar enthalpy of transition or fusion [2]: 7.5 ± 0.215 kcal/mol
